Data as given in patent US9040248B2, “Kits for detecting and monitoring endocrine disrupting chemicals (EDCs)” (The United States of America, as represented by the …, priority 2012, dated 2015).
Entries after “also recorded” stand apart in the source; their conditions may differ.

Tests used:
[1] = target: T1, GFP-GR (GFP-tagged glucocorticoid receptor) (Rattus norvegicus, UniProt P06536, C656G/D98G); assay: GFP-GR cytoplasm-to-nucleus translocation assay in 3617 cells; format: cell-based; conditions: 30 min treatment; water samples 100×
T1 construct: expressed in transfected cells; host or cells: 3617 cells (derivative of the 3134 mouse mammary adenocarcinoma line), tetracycline-repressible promoter
Experimental: (§1) For biological testing, samples prepared as above were reconstituted in DMSO and diluted in growth media to a final 1,000× concentration from the original water volume while maintaining DMSO at <0.2%. Samples were added to cells for 30 minutes at 100× concentration or as indicated in the text.
(§2) Prior to imaging, cells were grown overnight on 22-mm^2 coverslips in DMEM medium containing 10% charcoal stripped serum (Hyclone, Logan, Utah) without tetracycline (to allow the expression of the GFP-GR or GFP-AR, respectively) at a density of 2×10^5 per 6-well plate. For the automated experiments conducted in 96 or 384 well plates, cell density was 10,000 or 2,500 cells per well, respectively. Cells were treated with vehicle control, hormones (100 nM) or water samples for 30 min at 37° C. at a final concentration of 100× for water samples (unless otherwise specified). Additional negative controls contained samples that tested the activity of the POCIS membranes themselves.
Upon treatment, cells were fixed with 4% paraformaldehyde in PBS for 15 minutes and washed three times with PBS. Cells on the 22-mm^2 coverslips were mounted in […]® mounting media with DAPI (Vector Laboratories, Inc.) and examined on a Leica DMRA microscope with Leica 100×1.3-N.A. oil immersion objective. Images were acquired in green (GFP-GR and GFP-AR) and UV (DAPI) channel with SenSys (Photometrics) camera with KAF1400 chip configured to collect 0.067-μm-diameter pixels. […]
(§3) A Perkin Elmer Opera Image Screening System was used for fully automated collection of fluorescence images of cells. This system employed a 40× water immersion objective lens, laser illuminated Nipkow disk, and cooled CCD cameras to digitally capture high resolution confocal fluorescence micrographs (300 nm pixel size with 2×2 camera pixel binning). […] The algorithm also measured the mean GFP-GR or GFP-AR intensity in both compartments, and translocation was calculated as a ratio of these intensities. […]

[2] = target: T2, GFP-AR (GFP-tagged androgen receptor, eGFP-hAR) (Homo sapiens, UniProt P10275); assay: GFP-AR cytoplasm-to-nucleus translocation assay in 3108 cells; format: cell-based; conditions: 30 min treatment, hormones 100 nM or known concentrations, water samples 100×
T2 construct: expressed in transfected cells; host or cells: 3108 cells (derivative of the 3134 mouse mammary adenocarcinoma line), tetracycline-repressible promoter
Experimental: as §1
as §2, with “Additional negative controls contained samples that tested the activity of the POCIS membranes themselves.” left out
as §3

Row | Structure (SMILES) | GFP-GR nuclear translocation (in words) [1] | GFP-AR nuclear translocation (in words) [2] | GFP-AR nuclear translocation (in words) ([2]; listed as androst-4-en-3,6-dione)
1 | C[C@@]12CCC[C@H]1[C@@H]1CC(=O)C3=CC(=O)CC[C@]3(C)[C@H]1CC2 (single isomer, unassigned) [Androst-4-en-3,6-dione] | did not induce GFP-GR translocation | induced GFP-tagged androgen receptor (GFP-AR) translocation | translocated to the nucleus in concentration-dependent manner; also recorded: induces concentration-dependent translocation
2 | CCNc1nc(Cl)nc(NC(C)C)n1 [atrazine] | did not induce GFP-GR translocation |  | 
3 | C[C@]12C[C@H](O)[C@H]3[C@@H](CCC4=CC(=O)CC[C@@]43C)[C@@H]1CC[C@@H]2C(=O)CO [corticosterone] | translocates to the nucleus in a concentration-dependent manner |  | 
